Active and inactive are the calls of the source. No rule for the calls is given here.

The subject of the series is CCRIS mutagenicity, Ames/micronucleus/aberration tests. As to the kind of experiment: CCRIS mutagenicity studies. The source says: The CCRIS database contains chemical records with carcinogenicity, mutagenicity, tumor promotion, and tumor inhibition test results. It was developed by the National Cancer Institute (NCI). Data are derived from studies cited in primary journals, current awareness tools, NCI reports, and other sources. Test results have been reviewed by experts in carcinogenesis and mutagenesis.
CCRIS provides historical information from the years 1985 - 2011. It is no longer updated.
This is an archive assay for CCRIS mutagenicity studies.

Setting [1] is: Test System: AMES SALMONELLA TYPHIMURIUM, Strain/Indicator: TA98, Metabolic Activation: NONE, Method: PREINCUBATION
The mark [2] stands for this setting: Test System: AMES SALMONELLA TYPHIMURIUM, Strain/Indicator: TA100, Metabolic Activation: NONE, Method: PREINCUBATION

Regarding `O=S1(=O)CCCO1`, the mutagenic call by setting is: (Test System: AMES SALMONELLA TYPHIMURIUM, Strain/Indicator: TA100, Metabolic Activation: RAT, LIVER, S-9, KC500 OR PHENOBARBITAL, Method: LIQUID SUSPENSION) “active; positive”; (Test System: AMES SALMONELLA TYPHIMURIUM, Strain/Indicator: TA1535, Metabolic Activation: NONE, Method: STANDARD PLATE) “active; positive”; (Test System: UDS HUMAN FIBROBLASTS, Strain/Indicator: THY INCORP (NON-S-PHASE), Metabolic Activation: NONE, Method: LIQUID SCINTILLATION COUNTING) “active; positive”.
With `Nc1ncnc2c1ncn2-c1ccc([N+](=O)[O-])cc1[N+](=O)[O-]`, the mutagenic call was “inactive; negative” (Test System: AMES SALMONELLA TYPHIMURIUM, Strain/Indicator: TA98(1,8-DNP), Metabolic Activation: NONE, Method: PREINCUBATION); “inactive; negative” (Test System: AMES SALMONELLA TYPHIMURIUM, Strain/Indicator: TA98(1,8-DNP), Metabolic Activation: RAT, LIVER, S-9, PCB, Method: PREINCUBATION); “inactive; negative” (Test System: AMES SALMONELLA TYPHIMURIUM, Strain/Indicator: TA98(NR), Metabolic Activation: NONE, Method: PREINCUBATION); “inactive; negative” (Test System: AMES SALMONELLA TYPHIMURIUM, Strain/Indicator: TA98(NR), Metabolic Activation: RAT, LIVER, S-9, PCB, Method: PREINCUBATION); “inactive; negative” under setting [1]; “inactive; negative” (Test System: AMES SALMONELLA TYPHIMURIUM, Strain/Indicator: TA98, Metabolic Activation: RAT, LIVER, S-9, PCB, Method: PREINCUBATION). For the same compound, the mutagenic call is “inactive; negative” (Test System: AMES SALMONELLA TYPHIMURIUM, Strain/Indicator: TA100(1,8-DNP), Metabolic Activation: RAT, LIVER, S-9, PCB, Method: PREINCUBATION); “inactive; negative” (Test System: AMES SALMONELLA TYPHIMURIUM, Strain/Indicator: TA100(NR), Metabolic Activation: NONE, Method: PREINCUBATION); “inactive; negative” (Test System: AMES SALMONELLA TYPHIMURIUM, Strain/Indicator: TA100(NR), Metabolic Activation: RAT, LIVER, S-9, PCB, Method: PREINCUBATION); “active; positive” under setting [2]; “inactive; negative” (Test System: AMES SALMONELLA TYPHIMURIUM, Strain/Indicator: YG1020, Metabolic Activation: RAT, LIVER, S-9, PCB, Method: PREINCUBATION); “inactive; negative” (Test System: AMES SALMONELLA TYPHIMURIUM, Strain/Indicator: YG1021, Metabolic Activation: RAT, LIVER, S-9, PCB, Method: PREINCUBATION). In addition, the mutagenic call is “active; positive” (Test System: AMES SALMONELLA TYPHIMURIUM, Strain/Indicator: YG1024, Metabolic Activation: NONE, Method: PREINCUBATION); “active; positive” (Test System: AMES SALMONELLA TYPHIMURIUM, Strain/Indicator: YG1024, Metabolic Activation: RAT, LIVER, S-9, PCB, Method: PREINCUBATION); “inactive; negative” (Test System: AMES SALMONELLA TYPHIMURIUM, Strain/Indicator: YG1025, Metabolic Activation: NONE, Method: PREINCUBATION); “inactive; negative” (Test System: AMES SALMONELLA TYPHIMURIUM, Strain/Indicator: YG1025, Metabolic Activation: RAT, LIVER, S-9, PCB, Method: PREINCUBATION); “inactive; negative” (Test System: AMES SALMONELLA TYPHIMURIUM, Strain/Indicator: YG1026, Metabolic Activation: NONE, Method: PREINCUBATION); “inactive; negative” (Test System: AMES SALMONELLA TYPHIMURIUM, Strain/Indicator: YG1026, Metabolic Activation: RAT, LIVER, S-9, PCB, Method: PREINCUBATION). Also, the mutagenic call (Test System: AMES SALMONELLA TYPHIMURIUM, Strain/Indicator: YG1029, Metabolic Activation: NONE, Method: PREINCUBATION) is “active; positive” and the mutagenic call (Test System: AMES SALMONELLA TYPHIMURIUM, Strain/Indicator: YG1029, Metabolic Activation: RAT, LIVER, S-9, PCB, Method: PREINCUBATION) is “active; positive”.
Regarding `CCN(CC)CCCNc1ccc2nc(C)n3c4ccc(O)cc4c(=O)c1c23`, where the note is “Test System: CHINESE HAMSTER V-79, Strain/Indicator: V-79 (HGPRT)/6-THIOGUANINE, Metabolic Activation: NONE”, the mutagenic call is “active; positive”.
Turning to `CC(C)(C)c1cc(-c2ccccc2)ccc1NO`, the mutagenic call (Test System: AMES SALMONELLA TYPHIMURIUM, Strain/Indicator: TA98, Metabolic Activation: NONE, Method: STANDARD PLATE) is “active; positive”; the mutagenic call (Test System: AMES SALMONELLA TYPHIMURIUM, Strain/Indicator: TA98, Metabolic Activation: S-9, Method: STANDARD PLATE) is “active; positive”; the mutagenic call (Test System: AMES SALMONELLA TYPHIMURIUM, Strain/Indicator: TA100, Metabolic Activation: NONE, Method: STANDARD PLATE) was “active; positive”; the mutagenic call (Test System: AMES SALMONELLA TYPHIMURIUM, Strain/Indicator: TA100, Metabolic Activation: S-9, Method: STANDARD PLATE) is “active; positive”.
Regarding `CCCCCCCCCCCCc1ccccc1`, the mutagenic call was “inactive; negative” under setting [1]; “inactive; negative” (Test System: AMES SALMONELLA TYPHIMURIUM, Strain/Indicator: TA98, Metabolic Activation: RAT, LIVER, S-9, KC 500, Method: PREINCUBATION); “inactive; negative” under setting [2]; “inactive; negative” (Test System: AMES SALMONELLA TYPHIMURIUM, Strain/Indicator: TA100, Metabolic Activation: RAT, LIVER, S-9, KC 500, Method: PREINCUBATION); “inactive; negative” (Test System: AMES SALMONELLA TYPHIMURIUM, Strain/Indicator: TA1535, Metabolic Activation: NONE, Method: PREINCUBATION); “inactive; negative” (Test System: AMES SALMONELLA TYPHIMURIUM, Strain/Indicator: TA1535, Metabolic Activation: RAT, LIVER, S-9, KC 500, Method: PREINCUBATION). Moreover, the mutagenic call reads like this: (Test System: AMES SALMONELLA TYPHIMURIUM, Strain/Indicator: TA1537, Metabolic Activation: NONE, Method: PREINCUBATION) “inactive; negative”; (Test System: AMES SALMONELLA TYPHIMURIUM, Strain/Indicator: TA1537, Metabolic Activation: RAT, LIVER, S-9, KC 500, Method: PREINCUBATION) “inactive; negative”; (Test System: AMES SALMONELLA TYPHIMURIUM, Strain/Indicator: TA1538, Metabolic Activation: NONE, Method: PREINCUBATION) “inactive; negative”; (Test System: AMES SALMONELLA TYPHIMURIUM, Strain/Indicator: TA1538, Metabolic Activation: RAT, LIVER, S-9, KC 500, Method: PREINCUBATION) “inactive; negative”; (Test System: E. COLI, Strain/Indicator: WP2 UVRA, Metabolic Activation: NONE, Method: PREINCUBATION) “inactive; negative”; (Test System: E. COLI, Strain/Indicator: WP2 UVRA, Metabolic Activation: RAT, LIVER, S-9, KC 500, Method: PREINCUBATION) “inactive; negative”.
In the case of `COc1cc2c(c3oc4cccc(OC(C)=O)c4c(=O)c13)C1C=COC1O2` (configuration not stated), the mutagenic call by setting is: (Test System: AMES SALMONELLA TYPHIMURIUM, Strain/Indicator: TA98, Metabolic Activation: RAT, LIVER, S-9, PHENOBARBITAL, Method: STANDARD PLATE) “inactive; negative”; (Test System: AMES SALMONELLA TYPHIMURIUM, Strain/Indicator: TA100, Metabolic Activation: RAT, LIVER, S-9, PHENOBARBITAL, Method: STANDARD PLATE) “active; positive”.

For the origin of these results see PubChem BioAssay AID1259407 (Chemical Carcinogenesis Research Information System (CCRIS), 2018).
